According to patent US9447086B2, “6-amino acid heteroaryldihydropyrimidines for the treatment and prophylaxis of hepatitis B virus infection” (priority 2012, dated 2016):
≈ marks a conversion by molar mass, not a printed value. Read-outs that look alike come from different tables or passages of the source.

Experiments:
[1] = Lyophilisation solubility assay (Lysa); assay type: physicochemical; conditions: pH 6.5, aqueous buffer, thermodynamic from solid
Summary of the method: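 Duplicate samples from 10 mM DMSO stocks are dried, redissolved in 0.05 M phosphate buffer pH 6.5, stirred 1 h, shaken 2 h and left overnight. Filtrate and its 1/10 dilution are quantified by direct UV or HPLC-UV, giving solubility in μg/mL.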

HBV [2] = experiment: Anti-HBV activity in vitro in HepG2.2.15 cells (extracellular HBV DNA by qPCR); assay type: cell-based, Hepatitis B virus; conditions: Hepatitis B virus
Text: (§1) HepG2.2.15 and HepDE19 are stably-transfected cell lines containing the HBV genome. Both cell lines are derived from the hepatoblastoma cell line Hep G2 (American Type Culture Collection, ATCC® HB-8065™) by the published procedures described in references: MA Selles et al. Proc. Natl. Acad. Sci. USA 1987, 84, 1005-1009 and H Guo et al. Journal of Virology 2007, 81, 12472-12484, respectively. Both cell lines were maintained in Dulbecco's modified Eagle's medium (DMEM)-F12 medium supplemented with 10% fetal bovine serum, 100 U/mL penicillin, 100 μg/mL streptomycin, and 0.5 mg/mL of G418.
While HepG2.2.15 cells constitutively support HBV replication and production of virus particles, HepDE19 cells are inducible by tetracycline. Addition of 1 μg/mL tetracycline in culture medium suppresses HBV replication in HepDE19 cells, whereas switching to tetracycline-free medium resumes this process.
HepG2.2.15 cells were seeded into 96-well plates (3×10^4 cells in 100 μl media per well) and incubated overnight at 37° C. The test compounds were serially half-log diluted in DMSO, then diluted 100 times in culture media. 100 μL diluted compounds were added into the plates to reach 0.5% final concentration of DMSO in every well. Five days after compound treatment, culture supernatant was collected for further analysis.
For quantitative PCR detection of extracellular HBV DNA, 100 μL culture supernatant was collected and processed in MagNA Pure 96 Nucleic Acid Purification System (Roche Applied Science) for viral DNA extraction. The extracted samples were subjected to HBV DNA quantification by qPCR.
The compounds of the present invention were tested for their capacity to inhibit a HBV activity and activation as described herein.

HBV [3] = experiment: Selectivity index (CC50 value/EC50 value); assay type: cell-based, Hepatitis B virus
Text: Based on FDA guidance, in order to support clinical testing in humans, the assessment of acceptable risk-benefit has to be achieved by providing clear evidence of in vitro antiviral activity (EC50) and cytotoxicity (CC50). It is important to establish that an investigational product has antiviral activity at concentrations that can be achieved in vivo without inducing toxic effects to cells. Furthermore, in a cell culture model, apparent antiviral activity of an investigational product can be the result of host cell death after exposure to the product. The relative effectiveness of the compound in inhibiting viral replication compared to inducing cell death is defined as the selectivity index (CC50 value/EC50 value). It is desirable to have a high selectivity index giving maximum antiviral activity with minimal cell toxicity.
The relative effectiveness of the compound in inhibiting viral replication compared to inducing cell death is defined as the selectivity index (CC50 value/EC50 value). It is desirable to have a high selectivity index giving maximum antiviral activity with minimal cell toxicity.

[4] = Metabolic stability study in human microsome; assay type: in vitro ADME
Summary of the method: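 Human liver microsomes (0.5 mg/mL) with 1 μM compound in 100 mM phosphate pH 7.4 at 37 °C, started with 1 mM NADPH or an NADPH-regenerating system. Samples taken at 0, 3, 6, 9, 15 and 30 min, quenched in methanol. Parent remaining measured by LC-MS/MS; no-cofactor controls included.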

[5] = Cytotoxicity (CC50) in HepDE19 cells, CCK-8 cell viability; assay type: cell-based; conditions: human, HepDE19 cells; read-out: CC50
Text: as §1
Five days after treatment, cell viability was measured by addition of 20 μL of CCK-8 reagent. Two hours after incubation at 37° C., the absorbance at wavelengths of 450 nm and 630 nm (OD450 and OD630) was recorded by a plate reader.

[6] = HepG2.2.15 cells, in-house data, read-out: EC50

Structure (SMILES)	solubility thermodynamic ([1]; phosphate buffer)	EC50 (HBV [2]; [6])	Selectivity index (CC50/EC50) (HBV [3])	Human Hepatic Clearance [4]	CC50 at 5 days [5]	solubility thermodynamic [1]	EC50 (HBV [2]; HepG2.2.15)
COC(=O)C1=C(CN2CCOC[C@]2(C)C(=O)O)NC(c2nccs2)=N[C@H]1c1ccc(F)c(F)c1Cl (single isomer, unassigned) [Example 79]	> 660 µg/mL	4.5 nM	16889	2.18 mL/min/kg	76000 nM		
[2H][C@@]1(c2ccc(F)cc2Cl)N=C(c2nccs2)NC(CN2CC(F)(F)C[C@H]2C(=O)O)=C1C(=O)OC [Example 3, (S)-6-((S)-2-Carboxy-4,4-difluoro-pyrrolidin-1-ylmethyl)-4-(2-chloro-4-fluoro-phenyl)-[4-^2H]-2-thiazol-2-yl-1,4-dihydro-pyrimidine-5-carboxylic acid methyl ester]	> 644 µg/mL	1.1 nM	88182	9.21 mL/min/kg	97000 nM		
COC(=O)C1=C(CN2CCOC[C@H]2C(=O)O)NC(c2ncc(F)cc2F)=N[C@H]1c1ccc(F)cc1Cl [Example 6, (S)-4-[(R)-6-(2-Chloro-4-fluoro-phenyl)-2-(3,5-difluoro-pyridin-2-yl)-5-methoxycarbonyl-3,6-dihydro-pyrimidin-4-ylmethyl]-morpholine-3-carboxylic acid]	> 100 µg/mL	7.5 nM	3600	6.28 mL/min/kg	27000 nM		
COC(=O)C1=C(CN2CC(F)(F)C[C@H]2C(=O)O)NC(c2nc(C3CC3)cs2)=N[C@H]1c1ccc(F)cc1Cl [Example 10, (R)-6-((S)-2-Carboxy-4,4-difluoro-pyrrolidin-1-ylmethyl)-4-(2-chloro-4-fluoro-phenyl)-2-(4-cyclopropyl-thiazol-2-yl)-1,4-dihydro-pyrimidine-5-carboxylic acid methyl ester]	246 µg/mL (≈ 443 µM)	7.3 nM	5342	8.76 mL/min/kg	39000 nM		
COC(=O)C1=C(CN2CC(F)(F)C[C@H]2C(=O)O)NC(c2cc(F)cs2)=N[C@H]1c1ccc(F)cc1Cl [Example 12, (R)-6-((S)-2-Carboxy-4,4-difluoro-pyrrolidin-1-ylmethyl)-4-(2-chloro-4-fluoro-phenyl)-2-(4-fluoro-thiophen-2-yl)-1,4-dihydro-pyrimidine-5-carboxylic acid methyl ester]	488 µg/mL (≈ 917 µM)	9.3 nM	>10753	5.55 mL/min/kg	> 100000 nM		
[2H]C1([2H])[C@@H](C(=O)O)N(CC2=C(C(=O)OC)[C@H](c3ccc(F)cc3Cl)N=C(c3nccs3)N2)CC1(F)F [Example 19, (R)-6-((S)-2-Carboxy-[3,3-^2H2]-4,4-difluoro-pyrrolidin-1-ylmethyl)-4-(2-chloro-4-fluoro-phenyl)-2-thiazol-2-yl-1,4-dihydro-pyrimidine-5-carboxylic acid methyl ester]	> 654 µg/mL	5.7 nM	15614	3.65 mL/min/kg	89000 nM		
COC(=O)C1=C(CN2CC(F)(F)C[C@H]2C(=O)O)NC(c2nc(C(C)C)cs2)=N[C@H]1c1ccc(F)cc1Cl [Example 28, (R)-6-((S)-2-Carboxy-4,4-difluoro-pyrrolidin-1-ylmethyl)-4-(2-chloro-4-fluoro-phenyl)-2-(4-isopropyl-thiazol-2-yl)-1,4-dihydro-pyrimidine-5-carboxylic acid methyl ester]	247 µg/mL (≈ 443 µM)	4.4 nM	7045		31000 nM		
COC(=O)C1=C(CN2CCOC[C@H]2C(=O)O)NC(c2nc(SC)cs2)=N[C@H]1c1ccc(F)cc1Cl [Example 61, (3S)-4-[[(4R)-4-(2-Chloro-4-fluorophenyl)-5-methoxycarbonyl-2-(4-methylsulfanyl-1,3-thiazol-2-yl)-1,4-dihydropyrimidin-6-yl]methyl]morpholine-3-carboxylic acid]	495 µg/mL (≈ 915 µM)	18 nM	3133		56000 nM		
COC(=O)C1=C(CN2CC(F)(F)CC[C@@H]2C(=O)O)NC(c2nccs2)=N[C@H]1c1cccc(F)c1Cl [Example 110, (R)-6-((R)-2-Carboxy-5,5-difluoro-piperidin-1-ylmethyl)-4-(2-chloro-3-fluoro-phenyl)-2-thiazol-2-yl-1,4-dihydro-pyrimidine-5-carboxylic acid methyl ester]	> 661 µg/mL	42 nM		2.41 mL/min/kg			
CCOC(=O)C1=C(CN2CCO[C@H](C)[C@H]2C(=O)O)NC(c2nccs2)=N[C@H]1c1ccc(F)c(F)c1 [Example 112, (2R,3S)-4-[(S)-6-(3,4-Difluoro-phenyl)-5-ethoxycarbonyl-2-thiazol-2-yl-3,6-dihydro-pyrimidin-4-ylmethyl]-2-methyl-morpholine-3-carboxylic acid]		5.2 nM	14123	1.95 mL/min/kg	73000 nM		
CCOC(=O)C1=C(CN2CCO[C@H](C)[C@H]2C(=O)O)NC(c2nccs2)=N[C@H]1c1ccc(F)cc1Br [Example 116, (2R,3S)-4-[(R)-6-(2-Bromo-4-fluoro-phenyl)-5-ethoxycarbonyl-2-thiazol-2-yl-3,6-dihydro-pyrimidin-4-ylmethyl]-2-methyl-morpholine-3-carboxylic acid]				0 mL/min/kg		> 735 µg/mL	1.8 nM
COC(=O)C1=C(CN2CCO[C@H](C)[C@H]2C(=O)O)NC(c2nccs2)=N[C@H]1c1ccccc1Br [Example 119, (2R,3S)-4-[(R)-6-(2-Bromo-phenyl)-5-methoxycarbonyl-2-thiazol-2-yl-3,6-dihydro-pyrimidin-4-ylmethyl]-2-methyl-morpholine-3-carboxylic acid]		3 nM	>33333	0.85 mL/min/kg	> 100000 nM		
CCOC(=O)C1=C(CN2CCOC[C@H]2C(=O)O)NC(c2nccs2)=N[C@H]1c1ccc(Cl)c(Br)c1 [Example 124, (3S)-4-[[(4S)-4-(3-Bromo-4-chlorophenyl)-5-ethoxycarbonyl-2-(1,3-thiazol-2-yl)-1,4-dihydropyrimidin-6-yl]methyl]morpholine-3-carboxylic acid]	> 655 µg/mL	29 nM		2.17 mL/min/kg			
CCOC(=O)C1=C(CN2CCOC[C@H]2C(=O)O)NC(c2nccs2)=N[C@H]1c1cc(F)cc(Cl)c1 [Example 125, (3S)-4-[[(4S)-4-(3-Chloro-5-fluorophenyl)-5 ethoxycarbonyl-2-(1,3-thiazol-2-yl)-1,4-dihydropyrimidin-6-yl]methyl]morpholine-3 carboxylic acid]	> 636 µg/mL	30 nM		1.32 mL/min/kg			
CCOC(=O)C1=C(CN2CCOC[C@H]2C(=O)O)NC(c2nccs2)=N[C@H]1c1ccccc1I [Example 129, (3S)-4-[[(4R)-5-Ethoxycarbonyl-4-(2-iodophenyl)-2-(1,3-thiazol-2-yl)-1,4-dihydropyrimidin-6-yl]methyl]morpholine-3 carboxylic acid]		7.6 nM	>13158	4.25 mL/min/kg	> 100000 nM		
